What was measured:
[1] = tested on: IL-1β in the supernatant of the THP-1 cell culture medium; assay: IL-1β ELISA in supernatant of LPS/ATP-stimulated THP-1 cell culture medium; format: cell-based, Human; conditions: PPTN 5 μM, PMA-differentiated THP-1, LPS 100 ng/mL + ATP 5 mM, FIG. 5
Protocol: Human THP-1 cells were cultured in an RPMI-1640 culture medium (containing 10% fetal bovine serum, 100 U/mL penicillin, and 100 μg/mL streptomycin) and seeded into a culture plate at a density of 1×10^5 cells/well before the experiment. The cells were cultured at 37° C. with 95% 02 and 5% CO2 humidity. Before the experiment, PMA was added at 100 ng/mL to each well, and the cells were incubated for 24 h to induce the differentiation of the THP-1 cells into macrophages. Test compound 5 (2.5 μM, 5 μM, and 10 μM) and PPTN (5 μM) were added to the culture medium in advance for intervention. After 1 h, LPS at a final concentration of 100 ng/mL was added to the cells. After 3 h, ATP at a final concentration of 5 mM was added. After 1 h, the indexes were determined as follows:
The level of IL-1β in the supernatant of the cell culture medium was detected by an ELISA kit (Shenzhen NeoBioscience Technology Co., Ltd.), and the results are shown in FIG. 5.

P2Y14 receptor = target: T1, P2Y14 receptor (Homo sapiens, UniProt Q15391); assay: cAMP inhibition assay in HEK293 cells stably transfected with the P2Y14 receptor (UDPG-stimulated, cAMP Glo); format: cell-based; conditions: 100 nM compound; HEK293 stably transfected with P2Y14 receptor; 30 μM Forskolin, 1 μM UDPG, 4 h; inhibition rate from cAMP content; read-out: Inhibition @ 100 nM
T1 construct: expressed in transfected cells; host or cells: HEK293
T1 sequence (Q15391 1-338): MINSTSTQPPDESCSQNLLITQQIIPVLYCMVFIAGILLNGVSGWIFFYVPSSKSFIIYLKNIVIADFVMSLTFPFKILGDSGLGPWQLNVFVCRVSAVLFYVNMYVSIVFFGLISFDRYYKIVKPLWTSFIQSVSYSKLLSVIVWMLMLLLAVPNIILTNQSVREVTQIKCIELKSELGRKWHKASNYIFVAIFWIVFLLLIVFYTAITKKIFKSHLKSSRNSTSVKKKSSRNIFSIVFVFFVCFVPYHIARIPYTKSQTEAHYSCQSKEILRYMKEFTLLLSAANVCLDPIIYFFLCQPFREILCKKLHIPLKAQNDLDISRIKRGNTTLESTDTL
Protocol: An HEK293 cell strain stably transfected with the P2Y14 receptor was cultured in a DMEM culture medium (containing […], 100 U/mL penicillin, and 100 μg/mL streptomycin). Before the experiment, the cells were seeded into a culture plate at a density of 1×10^5 cells/well, and a serum-free culture medium was used instead. The cells were cultured at 37° C. with […] and 5% CO2 humidity. IBMX was added to inhibit the activity of PDEs, thereby ensuring a relatively high level of cAMP. The AC agonist Forskolin (30 μM) was adopted to stimulate the production of cellular cAMP. Test compounds at different concentrations (0.01 nm, 0.1 nm, 1 nm, 10 nm, and 100 nm) were added in advance, and PPTN was used as a positive control. Subsequently, 1 μM P2Y14 receptor agonist UDPG was added, and after 4 h, the content of intracellular cAMP was measured using a cAMP Glo™ Assay kit (PROMEGA Co. Ltd., USA). The inhibition rate was calculated based on the cAMP content.

acute peritonitis model = assay: LPS-induced acute peritonitis model, inflammatory factors in peritoneal fluids; format: in vivo; conditions: 5, 10 and 20 mg/kg by intraarticular injection, male ICR mice, 6 h after injection, vs model control, FIGS. 6-8
Protocol: Male clean-grade ICR mice were housed with free access to water and food, and with illumination for 12 h every day at an ambient temperature of 25±2° C. The animals were divided into several groups, that is, a normal control group, a model control group, and administration groups (test compound and dexamethasone). An acute peritonitis model was induced by a single intraperitoneal injection of LSP, while an equal volume of physiological saline was injected into the joint cavity in the normal control group. Each administration group was given test compound 5 (5 mg/kg, 10 mg/kg, and 20 mg/kg) and dexamethasone (10 mg/kg) by intraarticular injection. 6 h after the injection, 8 mL of PBS was injected, and the peritoneal cavity fluids were collected.

inhibition at 0.1 µM (P2Y14 receptor)	Compound	level of IL-1β in the supernatant of the cell culture medium [1]	gene expression levels of inflammatory factors in mouse peritoneal fluids (acute peritonitis model)
	O=C(O)c1cc(-c2ccc(C3CCNCC3)cc2)c2ccc(-c3ccc(C(F)(F)F)cc3)cc2c1 [PPTN]	showed an expected effect	
99.4%	Cc1ccc(C(=O)Nc2cc(C(=O)O)sc2Oc2ccc(C)nc2)cc1 [Compound 5, 5-((6-methylpyridin-3-yl)oxy)-4-(4-methylbenzamido)thiophene-2-carboxylic acid]		down-regulate the gene expression levels of inflammatory factors to different degrees
